Data from patent US20250263733A1, “TARGETED GENE INTEGRATION IN PLANTS” (LIMAGRAIN EUROPE, priority 2021, published 2025).

Tested on: Ubi7DL gene
Test: NGS sequencing of transformed plantlets for mutations at the gRNA target site around the STOP codon of Ubi7DL
Design: species or system wheat var. Fielder
Conditions: 59 of 97 events; multiplex G1, G2, G3 guides with Cas9; all mutations generated with G3
Text: The strategy for GT at Ubi7DL is outlined in FIG. 1 and is based on the method of in planta GT (Fauser et al. 2012). A Cas9 gRNA (G3 SEQ ID NO: 8) that efficiently makes a DNA double strand break (DSB) around the STOP codon of the Ubi7DL gene was first identified by Agrobacterium-mediated transformation into wheat var. Fielder with a binary plasmid containing a TaU6-tRNA multiplex guide (SEQ ID NO: 10) expressing 3 guides G1 (SEQ ID NO: 6), G2 (SEQ ID NO: 7) and G3 (SEQ ID NO: 8) under control of promoter TaU6 (SEQ ID NO: 9), together with ZmUbi (SEQ ID NO: 11)-Cas9 (SEQ ID NO: 13)-nos terminator (SEQ ID NO: 12) and pActin-Bar-nos cassettes. These 3 target sites are around the STOP codon of Ubi7DL. Fielder wheat cultivar was transformed with these Agrobacterium strains essentially as described by WO2000/063398.

G3: Cas9 gRNA (SEQ ID NO: 8) making a double strand break around the STOP codon of Ubi7DL (guide CAGGAGCTTACTGGCCACCA; listed as DNA, chemistry not given here; listed as Triticum aestivum) [Line G3]
independent transformation events with mutations at the target site: 61%
